The source of these data is patent US8822486B2, “Spiropiperidine compounds” (Eli Lilly and Company, priority 2009, dated 2014).

By ED50 is commonly meant the midpoint of the dose-response relation.

One experiment has as its target T1, Gal4 PPARδ (Homo sapiens, UniProt Q03181).
T1 construct: expressed in transfected cells; host or cells: CV1 (African green monkey kidney)
T1 sequence (Q03181 211-439 limits assumed): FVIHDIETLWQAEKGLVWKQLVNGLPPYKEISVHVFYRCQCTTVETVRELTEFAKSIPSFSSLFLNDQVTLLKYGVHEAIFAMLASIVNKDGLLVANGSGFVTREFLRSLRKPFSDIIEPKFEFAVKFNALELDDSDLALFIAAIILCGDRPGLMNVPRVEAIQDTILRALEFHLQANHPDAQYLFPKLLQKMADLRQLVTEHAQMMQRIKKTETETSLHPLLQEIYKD
Kind of experiment: Gal4 PPARδ reporter functional assay in CV1 cells. It is filed as cell-based. The note with it: examined up to 10 μM, luciferase reporter, 24 hours. The text has this:
(§1) Gal4 PPARα, Gal4 PPARδ, and PPARγ reporter functional assays are also used to monitor the selectivity of exemplified compounds. CV1 cells, which are derived from the renal tissue of an African green monkey, are transfected with various receptor and reporter plasmids using Fugene. For the Gal4 PPARα and PPARδ assays, a reporter plasmid containing five tandem copies of the yeast transcription protein Gal4 response element, cloned upstream of a firefly luciferase gene driven by the major late promoter of adenovirus, is transfected together with a Simian Virus 40 (SV40) driven plasmid constitutively expressing a hybrid protein containing the Gal4 DNA binding domain (DBD), and either the PPARα or PPARδ ligand binding. For the PPARγ assay, plasmids encoding PPARγ and RXRα, both driven by a cytomegalovirus (CMV) promoter are transfected together with a plasmid containing luciferase reporter cDNA driven by the TK promoter and a receptor response element (2×PPRE). Cells are transfected in T225 cm^2 cell culture flasks in DMEM media with 5% charcoal-stripped FBS. […] After 24 hours incubation with compounds, cells are lysed and luciferase activity is determined as a measure of receptor activation by luminescence. […] The maximum percent stimulation is determined versus maximum stimulation obtained with 10 μM of an appropriate PPAR agonist reference compound. […]
In general terms: A reporter such as luciferase makes a cellular process visible.

In the next experiment the target is T2, PPARγ (Homo sapiens, UniProt P37231).
T2 sequence (P37231 1-505): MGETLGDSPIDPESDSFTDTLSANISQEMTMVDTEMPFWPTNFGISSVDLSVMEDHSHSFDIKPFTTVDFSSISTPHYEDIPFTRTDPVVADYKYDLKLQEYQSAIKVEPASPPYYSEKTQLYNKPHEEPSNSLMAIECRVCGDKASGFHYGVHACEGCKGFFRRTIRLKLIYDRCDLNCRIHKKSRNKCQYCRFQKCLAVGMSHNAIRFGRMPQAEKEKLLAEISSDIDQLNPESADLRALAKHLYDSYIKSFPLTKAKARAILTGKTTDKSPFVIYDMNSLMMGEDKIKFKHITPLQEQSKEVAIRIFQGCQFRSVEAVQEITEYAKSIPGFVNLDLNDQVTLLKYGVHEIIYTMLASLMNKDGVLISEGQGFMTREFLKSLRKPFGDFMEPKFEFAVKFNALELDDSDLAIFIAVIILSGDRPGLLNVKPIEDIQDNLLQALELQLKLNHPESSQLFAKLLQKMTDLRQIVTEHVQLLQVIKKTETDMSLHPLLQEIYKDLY
T2 sequence (P19793 1-462 partner): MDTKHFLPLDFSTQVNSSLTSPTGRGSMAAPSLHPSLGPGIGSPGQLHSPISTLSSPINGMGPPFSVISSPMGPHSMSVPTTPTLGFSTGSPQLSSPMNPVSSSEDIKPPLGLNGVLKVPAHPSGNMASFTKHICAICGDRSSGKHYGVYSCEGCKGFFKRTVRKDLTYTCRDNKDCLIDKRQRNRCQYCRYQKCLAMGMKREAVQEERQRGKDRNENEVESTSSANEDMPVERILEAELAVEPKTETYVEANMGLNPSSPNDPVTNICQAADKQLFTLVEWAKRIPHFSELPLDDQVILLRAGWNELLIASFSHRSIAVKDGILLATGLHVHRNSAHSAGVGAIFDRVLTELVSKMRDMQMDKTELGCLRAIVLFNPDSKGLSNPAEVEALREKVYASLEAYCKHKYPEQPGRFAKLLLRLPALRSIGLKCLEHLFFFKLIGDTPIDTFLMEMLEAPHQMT
Kind of experiment: PPARγ reporter functional assay in CV1 cells. It is filed as cell-based. The settings on record: examined up to 10 μM, luciferase reporter, 24 hours.
Description: as §1

For a further experiment, the system named is Male Balb/c mice. Kind of experiment: Intraperitoneal Glucose Tolerance Test (IPGTT). It is filed as in vivo, mouse. The settings on record: oral. Here is the method: To examine the ability of exemplified compounds to activate GPR40 in-vivo resulting in anti-diabetic efficacy, i.e. an increase in insulin and reduction in glucose levels, a 4-day intraperitoneal glucose tolerance test (ipGTT) study is completed with each compound tested in the IPGTT.
Male Balb/c (Albino mice) mice (8-9 weeks of age) are single housed and fed with normal rodent chow diet and water ad libitum. Animals are weighed and randomized by body weight and daily body weights are recorded. Upon study initiation, animals are dosed once per day orally for three days using a formulation carrying methylcellulose and tween-80. On the night before the 4-day IPGTT study, animals are fasted overnight in clean cages. On the morning of the IPGTT (Day 4), animals are dosed orally with compound or vehicle alone 60 minutes prior to the IPGTT (glucose 2 g/kg, i.p.). Blood glucose levels are determined from tail bleeds taken at 0, 3, 7, 15, 30, and 60 min after glucose challenge. Plasma is isolated and used to estimate respective insulin levels. The blood glucose excursion profile from t=0 to t=60 min is used to integrate an area under the curve (AUC) for each treatment. Percent lowering in glucose is calculated from the AUC data of the compounds with respect to the AUC of vehicle group. The test compound is orally administered at 0.1, 0.3, 1.0, 3.0, or 10 mg/kg, and a positive control is administered at 10 mg/kg.

The mark [1] stands for this setting: Example 1 at 0.1, 0.3, 1.0 and 3.0 mg/kg, positive control 10 mg/kg.

Regarding `CC#C[C@@H](CC(=O)O)c1ccc(OCc2ccc(CN3CCC4(C=Cc5ccccc54)CC3)s2)cc1` [Example 1, (3S)-3-[4-[[5-(Spiro[indene-1,4′-piperidine]-1′-ylmethyl)-2-thienyl]methoxy]phenyl]hex-4-ynoic acid], the “functional activation of PPARδ” value on Gal4 PPARδ is “No functional activation”. Moreover, the “functional activation of PPARγ” value on PPARγ is given as “No functional activation”. Besides, in the experiment with Male Balb/c mice (Mus musculus, once per day, 4-day study, glucose 2 g/kg i.p., AUC t=0 to 60 min, read-out: ED50 based on AUCs for glucose lowering), the ED50 turned out to be 0.21 mg/kg. Moreover, in the experiment with Male Balb/c mice (Example 1 0.1, 0.3, 1.0, 3.0 or 10 mg/kg, positive control 10 mg/kg), the “glucose levels at the 3 minute time point” value was “No concentration of the compound of Example 1 or the positive control significantly lowered glucose levels”. For the same compound, in the experiment with Male Balb/c mice (Example 1 at 0.1, 0.3, 1.0 and 3.0 mg/kg), the “glucose levels at the 15 minute time point” value is given as “significantly lowered”. Also, in the experiment with Male Balb/c mice (setting [1]), the “glucose levels at the 30 minute time point” value is “significantly lowered” and the “glucose levels at the 60 minute time point” value is recorded as “significantly lowered”. Also, the “glucose levels at the 7 minute time point” value in the experiment on Male Balb/c mice (Example 1 at 0.3, 1.0, 3.0 and 10 mg/kg, positive control 10 mg/kg) is reported as “significantly lowered”. The insulin levels entry in the experiment on Male Balb/c mice (at the 3.0 and 10.0 mg/kg dose) is “significantly elevated”.
